# Laboratory results: PMC4055595, “Pharmacokinetic Compatibility of Ginsenosides and Schisandra Lignans in Shengmai-san: From the Perspective of P-Glycoprotein” (PLoS ONE, 2014)
# Read-outs that look alike come from different tables or passages of the source.
# What was measured:
# [1] = biological target: P-gp (MDR1) (Homo sapiens, UniProt P08183); assay: Transport of digoxin and ginsenosides across L-MDR1 cell monolayers (efflux ratio); format: in vitro ADME; details: human, read-out: Efflux ratio (Papp BL-AP / Papp AP-BL)
# P-gp (MDR1), sequence (P08183 whole entry): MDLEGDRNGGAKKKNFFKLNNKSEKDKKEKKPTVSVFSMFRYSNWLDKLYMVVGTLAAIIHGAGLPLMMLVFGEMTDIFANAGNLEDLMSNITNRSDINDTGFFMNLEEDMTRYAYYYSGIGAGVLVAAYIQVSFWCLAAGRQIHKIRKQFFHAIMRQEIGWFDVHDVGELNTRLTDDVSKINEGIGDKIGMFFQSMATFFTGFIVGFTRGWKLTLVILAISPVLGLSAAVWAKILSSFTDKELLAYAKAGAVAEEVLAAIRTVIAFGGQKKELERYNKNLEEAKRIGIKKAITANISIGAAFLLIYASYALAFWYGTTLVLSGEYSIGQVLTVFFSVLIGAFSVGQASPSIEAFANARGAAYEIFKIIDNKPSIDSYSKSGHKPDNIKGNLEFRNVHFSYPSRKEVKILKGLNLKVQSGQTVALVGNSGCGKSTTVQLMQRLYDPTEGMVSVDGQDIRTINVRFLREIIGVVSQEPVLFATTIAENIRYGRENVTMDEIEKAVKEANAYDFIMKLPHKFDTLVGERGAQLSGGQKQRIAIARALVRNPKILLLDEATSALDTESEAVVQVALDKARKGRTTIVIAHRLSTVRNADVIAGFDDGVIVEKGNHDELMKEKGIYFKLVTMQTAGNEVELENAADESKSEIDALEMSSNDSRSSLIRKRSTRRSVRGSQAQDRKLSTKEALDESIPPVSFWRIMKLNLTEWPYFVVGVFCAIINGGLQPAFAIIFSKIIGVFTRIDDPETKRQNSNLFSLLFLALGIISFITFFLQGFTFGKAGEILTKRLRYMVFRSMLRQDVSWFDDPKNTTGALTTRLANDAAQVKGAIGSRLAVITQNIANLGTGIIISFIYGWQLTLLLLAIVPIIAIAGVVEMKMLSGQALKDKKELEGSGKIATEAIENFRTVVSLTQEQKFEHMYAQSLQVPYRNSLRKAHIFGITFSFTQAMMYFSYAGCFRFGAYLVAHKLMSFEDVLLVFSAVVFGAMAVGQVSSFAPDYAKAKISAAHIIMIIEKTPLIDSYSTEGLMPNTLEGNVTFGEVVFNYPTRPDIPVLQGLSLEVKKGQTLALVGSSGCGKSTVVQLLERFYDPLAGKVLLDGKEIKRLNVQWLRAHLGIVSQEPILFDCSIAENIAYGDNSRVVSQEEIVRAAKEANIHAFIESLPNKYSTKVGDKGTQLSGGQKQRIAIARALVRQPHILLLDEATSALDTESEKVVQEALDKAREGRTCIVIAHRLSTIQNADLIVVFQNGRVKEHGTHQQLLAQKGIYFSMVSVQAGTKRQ
# Description: (§1) LLC-PK1 cells, a cell line lacking P-gp, and the derived cell line L-MDR1, which over-express human MDR1-encoded P-gp, were grown in minimum essential medium with supplements at 37°C, 5% CO2, and 95% humidity. LLC-PK1 and L-MDR1 cells were seeded at a density of 12×10^6 cells per 150-cm^2 flask and grown for 7 days in medium 199 supplemented with 2 mM glutamine, 10% fetal bovine serum, 10 mg/500 mL of streptomycin, and 10,000 IU/500 mL of penicillin. To ensure a constant expression level of transport protein, L-MDR1 cells were grown in the presence of 640 nM vincristine. Cells were grown as monolayer on polycarbonate membrane filters (Transwell; Costar Corporation, Cambridge, MA) as outlined previously. Transepithelial resistance was measured in each well using a Millicell ERS ohmmeter (Millipore, Bedford, MA); wells registering a resistance of 200 ohms or greater, after correcting for the resistance obtained in control blank wells, were used in the transport experiments.
# (§2) The LLC-PK1 and L-MDR1 cells were washed with warm Hank's balanced salt solution HBSS (pH 7.4) twice before transport experiment. HBSS containing verapamil (10 µM), SLE (2.0 and 10.0 µg/mL) or blank HBSS (control) was then loaded into both apical and basolateral chambers. After incubation at 37°C for 1.5 h, GE (100 µg/mL) was added to either the apical or basolateral side to evaluate the transport in absorptive and secretive directions, respectively. The cell monolayer was then incubated for another 2 h. Finally, the concentrations of ginsenosides were determined by LC/MS. All experiments were conducted in triplicate.
# (§3) For the transport assay, the apparent permeability (P app, cm/s) in each direction (A→B and B→A) was calculated as follows, where A is the surface area of the membrane inserts (0.0804 cm^2), C 0 is the initial concentration of the compound applied in the donor compartment (2 µM), and △Q is the amount (micromoles) of compound transported over time △t (5 h = 18,000 s): [drawing 1]
# (§4) The efflux ratio (ER) was a dimensionless number calculated as the ratio of the apparent permeability in the B→A direction divided by the apparent permeability in the A→B direction. [drawing 2]
# [2] = biological target: T1, human MDR1-encoded P-gp (L-MDR1 cells) (Homo sapiens, UniProt P08183); assay: as above; format: in vitro ADME; details: for Effect of verapamil on efflux ratio / Papp / Effect of SLE on efflux ratio / transport: L-MDR1 cells; for Effect of verapamil on efflux ratio / Papp: 10 µM verapamil; for Effect of SLE on efflux ratio / transport: SLE 2.0 and 10.0 µg/mL; for P-gp substrate classification: summary of transport/uptake in LLC-PK1, L-MDR1 and Caco-2 cells with verapamil
# T1 sequence (P08183 whole entry): as above
# Description: as §1, §2, §3, §4
# [3] = tested on: LLC-PK1 cells (lacking P-gp); assay: Transport of digoxin and ginsenosides across LLC-PK1 cell monolayers; format: in vitro ADME; details: for Effect of verapamil on transport (efflux ratio): 10 µM verapamil; for Effect of SLE on transport (AP→BL, BL→AP): SLE 2.0 and 10.0 µg/mL
# Description: as §1, §2, §3, §4
# [4] = tested on: LLC-PK1 cells (lacking P-gp); assay: Uptake (intracellular accumulation) of digoxin and ginsenosides in LLC-PK1 cells; format: in vitro ADME; details: for Effect of verapamil on intracellular accumulation: 10 µM verapamil; for Effect of SLE on intracellular accumulation: SLE 2.0 and 10.0 µg/mL
# Description: as §1
# (§5) LLC-PK1 and L-MDR1 cells were incubated with SLE (2.0 and 10.0 µg/mL) or verapamil (10 µM) for 1.0 h, and then were washed to discard SLE or verapamil before adding 100 µg/mL of GE. The accumulation of GE lasted for 2 h, and the intracellular concentrations of ginsenosides were measured by LC/MS. All experiments were conducted in triplicate.
# [5] = biological target: T1, human MDR1-encoded P-gp (L-MDR1 cells); assay: Uptake (intracellular concentration) of digoxin and ginsenosides in L-MDR1 cells; format: in vitro ADME
# Description: as §1, §5
# [6] = tested on: Caco-2 cell monolayer; assay: Transport of digoxin and ginsenosides across Caco-2 cell monolayer (efflux ratio); format: in vitro ADME, human
# Description: (§6) Caco-2 cells were purchased from American Type Culture Collection (Manassas, VA), and were routinely cultured in Dulbecco's modified Eagle's medium supplemented with 10% fetal bovine serum, 1% nonessential amino acids, 1 mM sodium pyruvate, and 100 U/mL penicillin and streptomycin (Invitrogen, Carlsbad, CA). The cells were grown in an atmosphere of 5% CO2 at 37°C, and cell medium was changed every other day. Cells were seeded at a density of 4×10^4 cells per well in 24-well microporous polycarbonate insert filter plates (0.4-µm pore size) (Corning Costar plates; Corning Life Sciences, Lowell, MA) and grown for 15 days in Caco-2 growth medium. The medium was replaced every 3 to 4 days. Before running the assay, the culture medium was replaced by HBSS buffer supplemented with 10 mM Hepes and 20 mM glucose.
# (§7) Caco-2 cells with a density of 1.2×10^5 cells/insert were seeded on a permeable polycarbonate insert (Millicell cell culture inserts, 0.4 µm pore size, 12 mm diameter; Millipore Corporation) in 24-well tissue culture plates and were used for the experiment 18 to 21 days after seeding. [^14C]Mannitol permeability and transepithelial electrical resistance measurements (Millicell-ERS epithelial volt-ohm meter; Millipore Corporation) were used to evaluate the integrity of Caco-2 cell monolayer. The monolayer used in transport studies had transepithelial electrical resistance values exceeding 600 Ω·cm^2, and the leakage of mannitol was less than 0.3% of the dose/h. Before transport initiation studies, the cell monolayer was first washed with warm HBSS (pH 7.4) twice. HBSS containing SLE (2.0 and 10.0 µg/mL) or 1% ethanol (control) was then loaded into both apical and basolateral chambers. After incubation at 37°C for 1.5 h, 100 µg/mL of GE was added to either the apical or basolateral side to evaluate the transport in absorptive and secretory directions, and the cell monolayer was incubated for another 2 h. 10 µM verapamil was used as a positive control inhibitor. At the designated time point, samples were taken from the receiving chamber for analysis. Ginsenosides were determined by LC-MS. All experiments were conducted in triplicate.
# as §3, §4
# [7] = tested on: Caco-2 cells; assay: Uptake of digoxin and ginsenosides in Caco-2 cells; format: in vitro ADME, human
# Description: as §6
# as §5, with “Caco-2” for “LLC-PK1 and L-MDR1”, “h. Then the cells” for “h, and then”, “washed with Hank's” for “washed”, “the addition” for “adding 100 µg/mL”, “GE (100 µg/mL).” for “GE.”, “ginsenosides” for “GE”
# [8] = Transport of digoxin and ginsenosides across Caco-2 cell monolayer (efflux ratio); format: in vitro ADME, human; details: human, Caco-2, pH 7.4
# Description: as §6, §7, §3, §4
# [9] = LLC-PK1, pH 7.4, L-MDR1 cells, control (absence of verapamil), GE 100 µg/mL, 2 h
# [10] = LLC-PK1, pH 7.4, with verapamil 10 µM, L-MDR1 cells, presence of 10 µM verapamil
# [11] = LLC-PK1, pH 7.4, L-MDR1 cells, presence of 10 µM verapamil
"efflux ratio at 2 h, 100 µg/mL [1, 10]",SMILES,"efflux ratio at 2 h, 100 µg/mL [1, 9]",Effect of verapamil on efflux ratio / Papp [2],Effect of SLE on efflux ratio / transport [2],P-gp substrate classification [2],Effect of verapamil on transport (efflux ratio) [3],Effect of verapamil on intracellular accumulation [4],"efflux ratio at 2 h [1, 11]","Effect of SLE on transport (AP→BL, BL→AP) [3]",Increase of intracellular concentration by SLE ([5]; 2.0 µg/mL SLE),Increase of intracellular concentration by SLE ([5]; 10.0 µg/mL SLE),Effect of SLE on intracellular accumulation [4],"Effect of verapamil on efflux ratio ([6]; Caco-2 cells, 10 µM verapamil)","Effect of SLE on BL-AP transport / efflux ratio ([6]; Caco-2 monolayer, SLE 2.0 and 10.0 µg/mL)",Effect of verapamil on uptake ([7]; 10 µM verapamil),"Effect of SLE on intracellular concentration ([7]; SLE 2.0 and 10.0 µg/mL, P<0.01)","efflux ratio at 2 h, 100 µg/mL [8]"
1.16,"CC(C)=CCC[C@](C)(O[C@@H]1O[C@H](CO)[C@@H](O)[C@H](O)[C@H]1O)[C@H]1CC[C@]2(C)[C@@H]1[C@H](O)C[C@@H]1[C@@]3(C)CC[C@H](O)C(C)(C)[C@@H]3[C@@H](O[C@@H]3O[C@H](CO)[C@@H](O)[C@H](O)[C@H]3O)C[C@]12C [Rg1, ginsenoside Rg1]",< 2,almost not affected by verapamil,almost not be affected by SLE,almost could not be transported by P-gp,No transport difference,almost not affected by verapamil,–,–,–,–,–,–,–,–,–,–
–,"CC(C)=CCC[C@](C)(O)[C@H]1CC[C@]2(C)[C@@H]1[C@H](O)C[C@@H]1[C@@]3(C)CC[C@H](O)C(C)(C)[C@@H]3[C@@H](O[C@@H]3O[C@H](CO)[C@@H](O)[C@H](O)[C@H]3O)C[C@]12C [Rh1, ginsenoside Rh1]",< 2,almost not affected by verapamil,almost not be affected by SLE,almost could not be transported by P-gp,No transport difference,almost not affected by verapamil,1.6,–,–,–,–,–,–,–,–,–
2.36,"CC(C)=CCC[C@](C)(O[C@@H]1O[C@H](CO)[C@@H](O)[C@H](O)[C@H]1O)[C@H]1CC[C@]2(C)[C@@H]1[C@H](O)C[C@@H]1[C@@]3(C)CC[C@H](O)C(C)(C)[C@@H]3[C@@H](O[C@@H]3O[C@H](CO)[C@@H](O)[C@H](O)[C@H]3O[C@@H]3O[C@@H](C)[C@H](O)[C@@H](O)[C@H]3O)C[C@]12C [Re, ginsenoside Re]",< 2,almost not affected by verapamil,almost not be affected by SLE,almost could not be transported by P-gp,No transport difference,almost not affected by verapamil,–,–,–,–,–,–,–,–,–,–
–,"CC(C)=CCC[C@](C)(O)[C@H]1CC[C@]2(C)[C@@H]1[C@H](O)C[C@@H]1[C@@]3(C)CC[C@H](O[C@@H]4O[C@H](CO)[C@@H](O)[C@H](O)[C@H]4O[C@@H]4O[C@H](CO)[C@@H](O)[C@H](O)[C@H]4O)C(C)(C)[C@@H]3CC[C@]12C [Rg3, ginsenoside Rg3]",–,significantly decrease of ER,significantly decreased,moderate P-gp substrates,No transport difference,no significant difference,–,No transport difference,2.5 fold,2.9 fold,no significant difference,decreased significantly,concentration dependently decrease,significantly enhanced,concentration dependently increase,–
–,"CC(C)=CCC[C@](C)(O)[C@H]1CC[C@]2(C)[C@@H]1[C@H](O)C[C@@H]1[C@@]3(C)CC[C@H](O)C(C)(C)[C@@H]3[C@@H](O[C@@H]3O[C@H](CO)[C@@H](O)[C@H](O)[C@H]3O[C@@H]3O[C@@H](C)[C@H](O)[C@@H](O)[C@H]3O)C[C@]12C [Rg2, ginsenoside Rg2]",> 3.5,significantly decrease of ER,significantly decreased,moderate P-gp substrates,No transport difference,no significant difference,1.52,No transport difference,1.7 fold,2.1 fold,no significant difference,–,–,–,–,4.26

SMILES,"efflux ratio at 2 h, 100 µg/mL [1, 10]","efflux ratio at 2 h, 100 µg/mL [1, 9]",Effect of verapamil on efflux ratio / Papp [2],Effect of SLE on efflux ratio / transport [2],P-gp substrate classification [2],Effect of verapamil on transport (efflux ratio) [3],Effect of verapamil on intracellular accumulation [4],"efflux ratio at 2 h [1, 11]","Effect of SLE on transport (AP→BL, BL→AP) [3]",Increase of intracellular concentration by SLE ([5]; 2.0 µg/mL SLE),Increase of intracellular concentration by SLE ([5]; 10.0 µg/mL SLE),Effect of SLE on intracellular accumulation [4],"Effect of verapamil on efflux ratio ([6]; Caco-2 cells, 10 µM verapamil)","Effect of SLE on BL-AP transport / efflux ratio ([6]; Caco-2 monolayer, SLE 2.0 and 10.0 µg/mL)",Effect of verapamil on uptake ([7]; 10 µM verapamil),"Effect of SLE on intracellular concentration ([7]; SLE 2.0 and 10.0 µg/mL, P<0.01)","efflux ratio at 2 h, 100 µg/mL [8]"
"CC(C)=CCC[C@](C)(O[C@@H]1O[C@H](CO)[C@@H](O)[C@H](O)[C@H]1O)[C@H]1CC[C@]2(C)[C@@H]1[C@H](O)C[C@@H]1[C@@]3(C)CC[C@H](O)C(C)(C)[C@@H]3[C@@H](O)C[C@]12C [F1, ginsenoside F1]",1.99,< 2,almost not affected by verapamil,almost not be affected by SLE,almost could not be transported by P-gp,No transport difference,almost not affected by verapamil,–,–,–,–,–,–,–,–,–,–
